{
  "source": "paper PMC5698418",
  "about": "(Nature Communications, 2017)",
  "key": {"[1]": {"biological_target": "T1, HDAC5 (Homo sapiens, UniProt Q9UQL6)", "T1 construct": "purchased BPS Bioscience (San Diego, CA), contract assay service", "T1 sequence (Q9UQL6 whole entry)": "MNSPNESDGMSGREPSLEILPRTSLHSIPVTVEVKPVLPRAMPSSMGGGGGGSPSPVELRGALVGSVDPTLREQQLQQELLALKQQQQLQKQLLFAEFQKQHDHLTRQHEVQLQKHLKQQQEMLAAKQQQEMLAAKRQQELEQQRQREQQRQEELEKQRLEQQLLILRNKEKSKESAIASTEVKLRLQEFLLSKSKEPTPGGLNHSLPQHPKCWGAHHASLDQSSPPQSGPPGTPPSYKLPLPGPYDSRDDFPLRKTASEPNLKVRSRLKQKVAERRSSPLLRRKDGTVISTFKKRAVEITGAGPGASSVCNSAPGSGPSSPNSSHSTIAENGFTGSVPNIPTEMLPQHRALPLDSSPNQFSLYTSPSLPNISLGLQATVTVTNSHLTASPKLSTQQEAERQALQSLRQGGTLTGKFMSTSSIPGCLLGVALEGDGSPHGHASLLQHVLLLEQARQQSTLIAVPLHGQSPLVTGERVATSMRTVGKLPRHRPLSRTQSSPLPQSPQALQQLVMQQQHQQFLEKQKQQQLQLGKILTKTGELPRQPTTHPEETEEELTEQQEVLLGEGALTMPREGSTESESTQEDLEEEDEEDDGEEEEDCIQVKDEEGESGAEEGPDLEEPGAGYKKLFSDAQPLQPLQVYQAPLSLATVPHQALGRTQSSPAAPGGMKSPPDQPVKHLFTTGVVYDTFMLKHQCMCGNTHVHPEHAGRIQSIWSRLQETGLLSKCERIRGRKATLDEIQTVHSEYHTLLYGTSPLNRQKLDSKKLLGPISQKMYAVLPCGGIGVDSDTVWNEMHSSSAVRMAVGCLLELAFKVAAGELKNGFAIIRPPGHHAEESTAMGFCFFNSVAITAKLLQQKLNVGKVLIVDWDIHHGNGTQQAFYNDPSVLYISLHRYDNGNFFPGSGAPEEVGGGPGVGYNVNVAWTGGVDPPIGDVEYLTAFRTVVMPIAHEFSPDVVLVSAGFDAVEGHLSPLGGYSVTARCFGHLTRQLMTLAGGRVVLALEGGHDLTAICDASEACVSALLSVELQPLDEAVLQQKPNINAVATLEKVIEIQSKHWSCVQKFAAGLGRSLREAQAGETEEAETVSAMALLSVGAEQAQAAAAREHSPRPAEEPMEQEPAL", "test": "Biochemical HDAC assay (BPS Bioscience), HDAC5", "conditions": "25 µM"}, "[2]": {"tested_on": "AMPAR currents in primary cortical neurons", "test": "Single-cell electrophysiology of AMPA-mediated mEPSCs", "format": "cell-based, mouse", "experimental": "Primary cortical neurons cultured on glass coverslips were recorded at DIV15 in voltage clamp mode. The external solution was kept at 25 °C and contained 120 mM NaCl, 2 mM KCl, 1 mM MgCl2, 1.5 mM CaCl2, 10 mM 4-(2-hydroxyethyl)-1-piperazineethane-sulfonic acid (HEPES) and 15 mM glucose. […]. Patch recording pipettes (3–6 MΩ) were filled with an internal solution (pH 7.2). The internal solution contained 120 mM K-gluconate, 6 mM NaCl, 1 mM MgCl2, 10 mM HEPES, and 0.2 mM ethylene glycol tetraacetic acid. Data were acquired using an HEKA EPC-10 patch-clamp amplifier interfaced with PatchMaster software and analyzed using FitMaster software (HEKA Elektronik, Holliston, MA) and MiniAnalysis (Synaptosoft, Fort Lee, NJ). Miniature EPSCs were recorded for a minimum of 2 min at a holding potential of −80 mV. Analysis of synaptic event data was performed using MiniAnalysis software with event detection threshold set at maximum root mean squared noise level (5 pA). Recordings of synaptic events were assessed for frequency (Hz) and mean amplitude (pA)."}, "[3]": {"tested_on": "BDNF-induced nuclear Arc expression in primary cortical neurons", "test": "Chemogenomic screen: high-content image-based assay of BDNF-induced nuclear Arc expression (96-well)", "format": "cell-based, mouse", "procedure,_shortened": "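DIV13 mouse primary cortical neurons (30,000 cells/well) are treated with compound at 16.7 µM and BDNF, in three biological replicates. Arc and acetyl-H3K9 are immunostained and imaged at ×40, and nuclear Arc signal is quantified automatically using acetyl-H3K9 as the nuclear mask.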"}, "[4]": {"biological_target": "T2, HDAC8 (Homo sapiens, UniProt Q9BY41)", "T2 construct": "purchased BPS Bioscience (San Diego, CA), contract assay service", "T2 sequence (Q9BY41 whole entry)": "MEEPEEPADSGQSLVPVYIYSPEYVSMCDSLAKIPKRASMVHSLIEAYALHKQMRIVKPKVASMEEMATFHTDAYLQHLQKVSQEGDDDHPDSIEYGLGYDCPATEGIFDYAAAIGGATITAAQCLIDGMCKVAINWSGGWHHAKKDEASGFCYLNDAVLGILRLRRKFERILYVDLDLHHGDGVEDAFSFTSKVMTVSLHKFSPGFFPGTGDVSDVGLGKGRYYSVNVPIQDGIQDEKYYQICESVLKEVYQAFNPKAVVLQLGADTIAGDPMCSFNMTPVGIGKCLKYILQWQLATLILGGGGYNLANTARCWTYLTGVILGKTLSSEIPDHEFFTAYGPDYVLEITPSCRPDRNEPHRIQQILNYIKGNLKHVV", "test": "Biochemical HDAC assay (BPS Bioscience), HDAC8", "conditions": "25 µM"}, "[5]": {"tested_on": "Arc protein in dentate gyrus", "test": "Arc immunohistochemistry in dentate gyrus after intraperitoneal injection", "format": "in vivo, mouse", "conditions": "30 mg kg−1 i.p., 3 h", "experimental": "Male mice (C57BL/6 strain) were received as 6-weeks old and habituated to their home cage as trios for 2 weeks before conducting the experiments. During the habituation time period, mice were kept on a light–dark cycle with minimal disruption and unrestricted access to food and water. On experiment day, mice from the same cage were taken and randomly subjected to intraperitoneal injection of vehicle (25% Kolliphor EL (Sigma-Aldrich, C5135), 10% DMSO) or AK-7 (30 mg kg^−1) solution and immediately placed back in their home cage or transferred to a novel environment. The novel environment consisted of a large cage placed in a different room with new bedding, food, as well as multiple objects like tunnel, running wheel, igloo, and aspen labyrinth that the mice could freely explore. About 3 h after the injection procedure, mice were rapidly anesthetized and killed by decapitation. Finally, brain tissues were harvested and flash frozen in a dry ice/isopentane bath and stored at −80 °C. All experiments were approved by the Animal Care and Use Committee of the Massachusetts General Hospital and carried out according to institutional guidelines.\nCoronal sections containing the hippocampus from all animals were cut from the frozen blocks at a thickness of 20 µm with a CM3050 cryostat (Leica, Nussloch, Germany). […]\nThe following approach was adopted to quantify the number of Arc-positive cell bodies and average acetyl-H3K9 immunostaining pixel intensity in dentate gyrus. First, complete dentate gyrus overlapping grayscale images of DAPI fluorescence and Arc or acetyl-H3K9 immunostaining were collected using a ×20 objective and Nikon Eclipse 90i upright microscope equipped with a motorized stage and image stitching capability. Second, the boundary of the dentate gyrus based on the DAPI fluorescence was determined in each image set with the ImageJ wand tool. Finally, this information was used for image segmentation and quantification of Arc-positive cell bodies or average acetyl-H3K9 immunostaining pixel intensity within each dentate gyrus images. […]"}, "[6]": {"tested_on": "GluA2 mRNA", "test": "GluA2 mRNA by RT-qPCR in cortical neurons", "format": "cell-based, mouse", "conditions": "BDNF plus AK-7 16.7 µM vs BDNF plus vehicle, 6 h", "experimental": "After experimental treatment, total RNA was isolated from primary cortical neuron cultures using the TRIzol method (Invitrogen). The concentration of total RNA was measured using a NanoDrop 1000 spectrophotometer (Thermo Fisher Scientific, Rockford, IL) and first-strand complementary DNA (cDNA) was synthesized using the iScript cDNA Synthesis Kit (Bio-Rad, Hercules, CA). Real-time PCRs were performed using gene-specific primers and monitored by quantification of SYBR Green I fluorescence using a Bio-Rad CFX96 Real-Time Detection System. Expression was normalized against Gapdh expression. The relative quantification from at least three biological replicates was performed using the comparative cycle threshold (∆∆CT) method.\nPrimers for real-time reverse transcription PCR experiments were: Arc, 5′-[…]-3′ (forward) and 5′-[…]-3′ (reverse); Map2, 5′-[…]-3′ (forward) and 5′-[…]-3′ (reverse); GluA1, 5′-[…]-3′ (forward) and 5′-[…]-3′ (reverse); GluA2, 5′-[…]-3′ (forward) and 5′-[…]-3′ (reverse); Gapdh, 5′-[…]-3′ (forward) and 5′-[…]-3′ (reverse).\nSupplementary Fig. 6. […] Bars represent mean fold-change and error bars indicate range from five biological replicates."}},
  "data": [
    {"smiles": "O=C(Nc1cccc(Br)c1)c1cccc(S(=O)(=O)N2CCCCCC2)c1", "note": "[AK-7]", "values": [
      {"measurement": "inhibitory activity toward HDAC5", "setting": "[1]", "value": "failed to show any inhibitory activity"},
      {"measurement": "mEPSC amplitude", "setting": "[2]; AK-7 and BDNF 6 h vs BDNF alone, DIV15", "value": "significant decrease in the amplitude of mEPSCs"},
      {"measurement": "mEPSC frequency", "setting": "[2]; untreated, BDNF alone, AK-7 plus BDNF", "value": "all similar"},
      {"measurement": "rank among potentiators of BDNF-induced nuclear Arc expression in screen", "setting": "[3]; 16.7 µM, three biological replicates", "value": "first"},
      {"measurement": "Percentage of cell with nuclear Arc immunostaining above 2σ threshold", "setting": "[3]; chemogenomic (SMART) screen, BDNF-induced nuclear Arc expression, primary cortical neurons, BDNF control 19.5", "value": 61.6, "unit": "%"},
      {"measurement": "Fold-change — Normalized to DMSO control (BDNF)", "setting": "[3]; nuclear Arc-positive cells relative to DMSO + BDNF control, negative values = decrease", "value": 3.2, "unit": "fold"},
      {"measurement": "inhibitory activity toward HDAC8", "setting": "[4]", "value": "failed to show any inhibitory activity"},
      {"measurement": "Arc immunofluorescence signal intensity in cell bodies vs vehicle", "setting": "[5]; home cage", "value": "not statistically different"},
      {"measurement": "number of neurons with prominent Arc immunostaining in dentate gyrus vs vehicle", "setting": "[5]; home cage", "value": "more than eight times"},
      {"measurement": "number of Arc immunopositive cell bodies in dentate gyrus vs vehicle", "setting": "[5]; novel environment", "value": "did not led to more Arc immunopositive cell bodies"},
      {"measurement": "GluA2 mRNA expression", "setting": "[6]", "value": "does not affect"}
    ]}
  ]
}
